Test: xn = mol fraction of the nth substance listed

CCCCCCCCCCCCCC[P+](CCCCCC)(CCCCCC)CCCCCC.c1nnc[n-]1 + COCCOCCOCCOCCOC
viscosity [mPa·s], 100 kPa
Details | x1 = 0.418 | x1 = 0.516 | x1 = 0.61 | x1 = 0.694 | x1 = 0.751 | x1 = 0.804 | x1 = 0.874 | x1 = 0.954
293.15 K | 66 | 111 | 167 | 272 | 360 | 508 | 679 | 994
298.15 K | 53 | 88 | 128 | 208 | 269 | 374 | 491 | 706
303.15 K | – | 70 | 101 | 162 | 205 | 281 | 364 | 512
308.15 K | – | 57 | 81 | 129 | 160 | 217 | 275 | 382
313.15 K | – | – | 66 | 104 | 126 | 169 | 212 | 289
318.15 K | – | – | 54 | 86 | 102 | 135 | 166 | 223
323.15 K | – | – | – | 71 | 83 | 109 | 133 | 176

O=C1CCCCC1 + COc1ccccc1
viscosity [mPa·s], 101.33 kPa
Details | x1 = 0.1002 | x1 = 0.2031 | x1 = 0.303 | x1 = 0.402 | x1 = 0.5032 | x1 = 0.6017 | x1 = 0.7 | x1 = 0.7976 | x1 = 0.8978
298.15 K | 1.048 | 1.096 | 1.131 | 1.194 | 1.245 | 1.331 | 1.44 | 1.558 | 1.732
303.15 K | 0.968 | 1.004 | 1.044 | 1.092 | 1.151 | 1.22 | 1.304 | 1.421 | 1.578
308.15 K | 0.905 | 0.93 | 0.966 | 1.012 | 1.06 | 1.127 | 1.207 | 1.306 | 1.444

CC(=O)CC(C)C + CS(C)=O
303.15 K, 101 kPa
Details | viscosity [mPa·s]
x2 = 0.1332 | 0.6376
x2 = 0.257 | 0.7283
x2 = 0.3722 | 0.8149
x2 = 0.4798 | 0.9229
x2 = 0.5804 | 1.042
x2 = 0.6748 | 1.16
x2 = 0.7635 | 1.306

O=C(OCc1ccccc1)c1ccccc1O + CS(C)=O
303.15 K, 101 kPa
Details | viscosity [mPa·s]
x1 = 0.079 | 2.299
x1 = 0.1284 | 2.529
x1 = 0.1867 | 2.933
x1 = 0.2564 | 3.273
x1 = 0.3413 | 3.776
x1 = 0.4467 | 4.342
x1 = 0.5812 | 4.995

O=C1CCCCC1 + CS(C)=O
303.15 K, 101 kPa
Details | viscosity [mPa·s]
x2 = 0.099 | 1.721
x2 = 0.1791 | 1.669
x2 = 0.2687 | 1.649
x2 = 0.3683 | 1.648
x2 = 0.4653 | 1.657
x2 = 0.5628 | 1.675
x2 = 0.6679 | 1.698
x2 = 0.7877 | 1.725
x2 = 0.8903 | 1.755

CC(=O)CC(C)C + Cc1ccc(C)cc1
298.15 K, 101 kPa
Details | viscosity [mPa·s]
x1 = 0.1409 | 0.59
x1 = 0.226 | 0.583
x1 = 0.3369 | 0.576
x1 = 0.4463 | 0.569
x1 = 0.5673 | 0.563
x1 = 0.6366 | 0.559
x1 = 0.8014 | 0.551
x1 = 0.9061 | 0.546

O=C1CCCCC1 + Cc1ccc(C)cc1
viscosity [mPa·s], 101.33 kPa
Details | x1 = 0.1013 | x1 = 0.2048 | x1 = 0.3016 | x1 = 0.4023 | x1 = 0.5186 | x1 = 0.6081 | x1 = 0.7034 | x1 = 0.7967 | x1 = 0.9005
298.15 K | 0.655 | 0.702 | 0.762 | 0.834 | 0.938 | 1.04 | 1.194 | 1.35 | 1.617
303.15 K | 0.612 | 0.657 | 0.711 | 0.777 | 0.871 | 0.965 | 1.088 | 1.237 | 1.481
308.15 K | 0.574 | 0.618 | 0.667 | 0.728 | 0.819 | 0.897 | 1.01 | 1.144 | 1.354

CC(=O)CC(C)C + Cc1ccccc1
298.15 K, 101 kPa
Details | viscosity [mPa·s]
x1 = 0.1094 | 0.545
x1 = 0.207 | 0.541
x1 = 0.3183 | 0.539
x1 = 0.4196 | 0.538
x1 = 0.5357 | 0.537
x1 = 0.6441 | 0.544
x1 = 0.7653 | 0.539
x1 = 0.8774 | 0.541

CC(C)CC(C)(C)C + Cc1ccccc1
101 kPa
Details | viscosity [mPa·s]
298.15 K, x1 = 0.1138 | 0.519
298.15 K, x1 = 0.2032 | 0.498
298.15 K, x1 = 0.2796 | 0.485
298.15 K, x1 = 0.3319 | 0.477
298.15 K, x1 = 0.4044 | 0.47
298.15 K, x1 = 0.4365 | 0.467
298.15 K, x1 = 0.4983 | 0.464
298.15 K, x1 = 0.618 | 0.459
298.15 K, x1 = 0.6934 | 0.458
298.15 K, x1 = 0.7315 | 0.461
298.15 K, x1 = 0.8036 | 0.463
298.15 K, x1 = 0.8966 | 0.467
298.15 K, x1 = 0.9292 | 0.47
298.15 K, x1 = 0.9743 | 0.474
308.15 K, x1 = 0.0644 | 0.4877
308.15 K, x1 = 0.1217 | 0.4728
308.15 K, x1 = 0.1933 | 0.4593
308.15 K, x1 = 0.2715 | 0.4474
308.15 K, x1 = 0.3689 | 0.4362
308.15 K, x1 = 0.4483 | 0.4305
308.15 K, x1 = 0.5805 | 0.4258
308.15 K, x1 = 0.6997 | 0.425
308.15 K, x1 = 0.8297 | 0.4265

CCCCCCO + Cc1ccccc1
viscosity [mPa·s], 101 kPa
Details | x2 = 0.1151 | x2 = 0.2265 | x2 = 0.3342 | x2 = 0.4384 | x2 = 0.5394 | x2 = 0.6372 | x2 = 0.7321 | x2 = 0.8241 | x2 = 0.9133
303.15 K | 2.859 | 2.167 | 1.692 | 1.351 | 1.099 | 0.882 | 0.7364 | 0.6235 | 0.5592
313.15 K | 2.206 | 1.701 | 1.341 | 1.097 | 0.9164 | 0.7593 | 0.6439 | 0.5569 | 0.5069
323.15 K | 1.661 | 1.321 | 1.057 | 0.8845 | 0.7532 | 0.6516 | 0.5418 | 0.4674 | 0.4336

CCOCC + Cc1ccccc1
viscosity [mPa·s], 101 kPa
Details | 293.15 K | 298.15 K | 303.15 K | 308.15 K
x2 = 0.21 | 0.3 | 0.29 | 0.281 | 0.272
x2 = 0.45 | 0.379 | 0.36 | 0.345 | 0.331
x2 = 0.71 | 0.468 | 0.445 | 0.419 | 0.404

O=C1CCCCC1 + Cc1ccccc1
viscosity [mPa·s]
Details | 298.15 K | 303.15 K | 308.15 K
101 kPa, x1 = 0.1059 | 0.615 | – | –
101 kPa, x1 = 0.2177 | 0.682 | – | –
101 kPa, x1 = 0.3103 | 0.74 | – | –
101 kPa, x1 = 0.4166 | 0.829 | – | –
101 kPa, x1 = 0.5047 | 0.884 | – | –
101 kPa, x1 = 0.6049 | 0.971 | – | –
101 kPa, x1 = 0.7171 | 1.218 | – | –
101 kPa, x1 = 0.7943 | 1.333 | – | –
101 kPa, x1 = 0.9041 | 1.574 | – | –
101 kPa, x2 = 0.1021 | – | 1.396 | –
101 kPa, x2 = 0.202 | – | 1.218 | –
101 kPa, x2 = 0.3024 | – | 1.068 | –
101 kPa, x2 = 0.4051 | – | 0.9428 | –
101 kPa, x2 = 0.4964 | – | 0.8546 | –
101 kPa, x2 = 0.6017 | – | 0.753 | –
101 kPa, x2 = 0.6963 | – | 0.6911 | –
101 kPa, x2 = 0.8022 | – | 0.6292 | –
101.33 kPa, x1 = 0.1032 | 0.61 | 0.573 | 0.543
101.33 kPa, x1 = 0.1997 | 0.668 | 0.625 | 0.59
101.33 kPa, x1 = 0.3024 | 0.738 | 0.689 | 0.648
101.33 kPa, x1 = 0.4055 | 0.824 | 0.767 | 0.721
101.33 kPa, x1 = 0.504 | 0.922 | 0.854 | 0.799
101.33 kPa, x1 = 0.602 | 1.043 | 0.972 | 0.903
101.33 kPa, x1 = 0.7012 | 1.194 | 1.103 | 1.02
101.33 kPa, x1 = 0.7999 | 1.391 | 1.273 | 1.183
101.33 kPa, x1 = 0.9027 | 1.654 | 1.505 | 1.382

From the CheMixHub viscosity set
